This is an account of results in US11014908B2, “Chemical compounds” (Pfizer Inc., priority 2018, dated 2021).

In assay [1] the target is T1, purified sickle cell hemoglobin (HbS) (Homo sapiens, UniProt P68871+P69905, E7V).
T1 construct: HbS was obtained from the blood of homozygous S/S patients; from tissue; host or cells: red blood cells of homozygous S/S patients
Description: Binding affinity to purified HbS by Surface Plasmon Resonance (SPR). Conditions: crosslinked biotinylated HbS, 1:1 binding model. The gist of the method:
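Patient-derived HbS, purified and crosslinked between beta subunits (Lys82-Lys82), biotinylated and captured on streptavidin sensor at 4000–5000 RU. Running buffer 100 mM potassium phosphate pH 7.5, 1 mM EDTA, 0.1 mg/mL BSA, 1% DMSO; 2 min association, ≥5 min dissociation, ≥4 concentrations; Kd from 1:1 model fit.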

The target of assay [2] is T2, HbS (Homo sapiens, UniProt P68871+P69905, E7V).
T2 construct: HbS was obtained from the blood of homozygous S/S patients; from tissue; host or cells: red blood cells of homozygous S/S patients
Description: 'R'-'T' assay (conversion of oxy HbS to deoxy HbS under deoxygenating conditions). The class given is biochemical. Conditions: 50% inhibition of HbS 'R'-'T' conversion; 3 uM HbS, <1% O2. The gist of the method:
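Oxy HbS diluted to 3 µM in 100 mM potassium phosphate pH 7.4, incubated 1 h at room temperature with compound, then held under <1% O2 for 2 h. Conversion followed by background-corrected 415/430 nm absorbance ratio at 0, 90 and 120 min; percent effect normalized to tucaresol, IC50 from concentration series.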

Each structure is given as a SMILES string.

In assay [1], `C[C@H](Oc1cc2cc(F)cc(F)c2nc1N)c1ncc(F)cc1-n1cccn1` [Example 38, 6,8-difluoro-3-{(1S)-1-[5-fluoro-3-(1H-pyrazol-1-yl)pyridin-2-yl]ethoxy}quinolin-2-amine] came in with a Kd of 45 nM. Also, the concentration for half-maximal inhibition (IC50) in assay [2] worked out at 3620 nM.

In turn, `C[C@H](Oc1cc2cc(F)ccc2nc1N)c1cc2c(cnn2CC(=O)O)cc1-n1cccn1` [Example 67, [6-{(1S)-1-[(2-amino-6-fluoroquinolin-3-yl)oxy]ethyl}-5-(1H-pyrazol-1-yl)-1H-indazol-1-yl]acetic Acid] registered a Kd in assay [1] of 9 nM. This molecule also had an IC50 in assay [2] of 3710 nM.

Molecule `C[C@H](Oc1cc2cc(C(N)=O)ccc2nc1N)c1ncccc1-n1cccn1` [Example 30, 2-amino-3-{(1S)-1-[3-(1H-pyrazol-1-yl)pyridin-2-yl]ethoxy}quinoline-6-carboxamide] yielded a Kd in assay [1] of 1510 nM. This molecule also displayed an IC50 in assay [2] of 6250 nM.

Regarding `C[C@H](Oc1cc2cc(C(N)=O)c(F)cc2nc1N)c1nc2[nH]ncc2cc1-n1cccn1` [Example 76, 2-amino-7-fluoro-3-{(1S)-1-[5-(1H-pyrazol-1-yl)-1H-pyrazolo[3,4-b]pyridin-6-yl]ethoxy}quinoline-6-carboxamide], the affinity in assay [1], expressed as Kd, was 14 nM. This molecule also returned an IC50 in assay [2] of 28900 nM.

Take `C[C@H](Oc1cc2cc(F)ccc2nc1N)c1cc(C(=O)NCC(=O)O)ccc1-n1cccn1` [Example 10, N-[3-{(1S)-1-[(2-amino-6-fluoroquinolin-3-yl)oxy]ethyl}-4-(1H-pyrazol-1-yl)benzoyl]glycine]: the Kd in assay [1] was found to be 211 nM. The IC50 in assay [2] came to 5860 nM.

Take `C[C@H](Oc1cc2cc(F)ccc2nc1N)c1cc(OCC(=O)O)ccc1-n1cccn1` [Example 15, [3-{(1S)-1-[(2-amino-6-fluoroquinolin-3-yl)oxy]ethyl}-4-(1H-pyrazol-1-yl)phenoxy]acetic Acid]: in assay [1], the Kd was 63 nM. Also, the concentration for half-maximal inhibition (IC50) in assay [2] is 3890 nM.

As to `C[C@H](Oc1cc2cc(F)c(Cl)cc2nc1N)c1cc(C(N)=O)c(F)cc1-n1cccn1` [Example 2, 5-{(1S)-1-[(2-amino-7-chloro-6-fluoroquinolin-3-yl)oxy]ethyl}-2-fluoro-4-(1H-pyrazol-1-yl)benzamide], the Kd in assay [1] was determined as 21 nM. The same molecule returned an IC50 in assay [2] of 6820 nM.

With `C[C@H](Oc1cc2cc(F)cc(F)c2nc1N)c1cc(C(=O)NS(C)(=O)=O)ccc1-n1cccn1` [Example 24, 3-{(1S)-1-[(2-amino-6,8-difluoroquinolin-3-yl)oxy]ethyl}-N-(methylsulfonyl)-4-(1H-pyrazol-1-yl)benzamide], the Kd in assay [1] was determined as 15 nM. In addition, 4660 nM corresponded to half-maximal inhibition in assay [2] (IC50).

With `COc1ccc(-n2cccn2)c([C@H](C)Oc2cc3cc(F)cc(F)c3nc2N)n1` [Example 56, 6,8-difluoro-3-{(1S)-1-[6-methoxy-3-(1H-pyrazol-1-yl)pyridin-2-yl]ethoxy}quinolin-2-amine], binding in assay [1] was put at a Kd of 53 nM. In assay [2], this molecule gave an IC50 of 5680 nM.

Consider `COCCNC(=O)c1ccc(-n2cccn2)c([C@H](C)Oc2cc3cc(F)ccc3nc2N)c1` [Example 11, 3-{(1S)-1-[(2-amino-6-fluoroquinolin-3-yl)oxy]ethyl}-N-(2-methoxyethyl)-4-(1H-pyrazol-1-yl)benzamide], for which binding in assay [1] was characterised by a dissociation constant (Kd) of 61 nM. This molecule also registered an IC50 in assay [2] of 4350 nM.

In assay [1], `Cc1cc2nc(N)c(O[C@@H](C)c3nc4[nH]ncc4cc3-n3cccn3)cc2cn1` [Example 75, 7-methyl-3-{(1S)-1-[5-(1H-pyrazol-1-yl)-1H-pyrazolo[3,4-b]pyridin-6-yl]ethoxy}-1,6-naphthyridin-2-amine] gave a Kd of 36 nM. In assay [2], this molecule returned a half-inhibitory concentration (IC50) of 3760 nM.

As for `C[C@H](Oc1cc2cc(F)cc(F)c2nc1N)c1cc2c(cnn2CC(=O)O)cc1-n1cccn1` [Example 69, [6-{(1S)-1-[(2-amino-6,8-difluoroquinolin-3-yl)oxy]ethyl}-5-(1H-pyrazol-1-yl)-1H-indazol-1-yl]acetic Acid], in assay [1], binding was put at a Kd of 10 nM. This molecule returned an IC50 in assay [2] of 4670 nM.
